Assay results published in patent US20040171086A1, “Selective modulation of TLR-mediated biological activity” (3M Innovative Properties Company, priority 2003, published 2004).

Assays:
[1] = molecular target: T1, TLR7 (Homo sapiens, UniProt Q9NYK1); experiment: NFκB-luciferase reporter assay in HEK293 cells transfected with human TLR7 (HEK293-TLR7); assay type: cell-based; set-up: expressed in transfected cells; host or cells: HEK293 (ATCC CRL-1573), pIRES vector, G-418 selected; settings: HEK293-TLR7, 10 μM IRM, 16 hours
T1 sequence (Q9NYK1 27-1049): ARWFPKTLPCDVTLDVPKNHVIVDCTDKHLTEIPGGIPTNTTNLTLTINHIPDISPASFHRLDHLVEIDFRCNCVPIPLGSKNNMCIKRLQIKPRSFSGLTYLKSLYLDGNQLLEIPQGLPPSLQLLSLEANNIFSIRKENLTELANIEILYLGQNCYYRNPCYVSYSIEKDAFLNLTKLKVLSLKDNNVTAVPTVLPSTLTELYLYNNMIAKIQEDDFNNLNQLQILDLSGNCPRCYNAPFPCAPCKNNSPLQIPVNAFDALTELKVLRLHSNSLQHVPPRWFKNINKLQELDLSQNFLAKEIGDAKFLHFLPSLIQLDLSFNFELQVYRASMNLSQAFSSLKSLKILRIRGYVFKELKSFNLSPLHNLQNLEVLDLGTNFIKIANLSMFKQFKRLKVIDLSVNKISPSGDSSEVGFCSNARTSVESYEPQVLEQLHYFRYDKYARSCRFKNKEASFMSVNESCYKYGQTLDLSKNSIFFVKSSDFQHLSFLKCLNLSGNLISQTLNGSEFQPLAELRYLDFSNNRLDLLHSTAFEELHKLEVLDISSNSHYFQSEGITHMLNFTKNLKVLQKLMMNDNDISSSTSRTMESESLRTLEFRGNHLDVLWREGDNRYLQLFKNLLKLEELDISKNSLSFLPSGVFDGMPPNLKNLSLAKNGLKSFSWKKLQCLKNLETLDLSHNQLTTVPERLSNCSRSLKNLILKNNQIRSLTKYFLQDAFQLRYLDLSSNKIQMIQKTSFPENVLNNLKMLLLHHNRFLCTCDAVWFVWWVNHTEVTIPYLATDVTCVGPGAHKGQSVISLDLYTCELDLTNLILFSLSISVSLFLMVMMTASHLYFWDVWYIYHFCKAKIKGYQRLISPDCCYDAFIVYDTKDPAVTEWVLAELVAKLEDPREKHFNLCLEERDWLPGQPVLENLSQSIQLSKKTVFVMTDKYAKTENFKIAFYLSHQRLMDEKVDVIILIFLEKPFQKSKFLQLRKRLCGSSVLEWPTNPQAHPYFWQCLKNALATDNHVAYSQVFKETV
Protocol: A compound was identified as increasing cellular activity mediated through a given TLR if it induced at least a two-fold increase in NFκB-induced luciferase signal compared to the control.
HEK293 medium was prepared from 90% Minimum Essential Medium (MEM) with 2 mM L-glutamine and Earle's Balanced Salt Solution (Invitrogen Corp., Rockville, Md.) adjusted to contain 1.5 g/L sodium bicarbonate, 0.1 mM non-essential amino acids, and 1.0 mM sodium pyruvate; 10% heat-inactivated fetal calf serum. HEK293 cells were cultured by incubating cells in HEK293 medium overnight at 37° C., 8% CO2.
The cells were co-transfected with (1) pIRES (BD Biosciences Clontech, Palo Alto, Calif.) either (a) unmodified (HEK293-vector), (b) containing an expressible human TLR7 gene (HEK293-TLR7), or (c) containing an expressible human TLR8 gene (HEK293-TLR8), and (2) NFκB-luc reporter (Stratagene, La Jolla, Calif.) in a 10:1 ratio with Fugene 6 transfection reagent (Roche Diagnostics Corp., Indianapolis, Ind.) following the manufacturer's instructions.
The cells were stimulated with 1 μL of IRM compounds at 1 mM in DMSO (final IRM concentration of 10 μM) or 1 μL DMSO as a control. The plates were then incubated an additional 16 hours at 37° C., 5% CO2. The luciferase signal was read using the LucLite kit (Packard Instrument Co., Meriden, Conn.). Luminescence was measured on an LMAX luminometer (Molecular Devices Corp., Sunnyvale, Calif.).

[2] = molecular target: T1, TLR7; experiment: IFN-α1-luciferase reporter assay in genetically modified Namalwa cells, TLR7; assay type: cell-based; set-up: expressed in transfected cells; host or cells: Namalwa (ATCC CRL-1432); settings: 10 μM IRM, 18 hours
Protocol: Results are shown in Table 6 and are expressed as fold induction of IFN-α1 —induced luciferase signal, again with respect to a vehicle control.
The assay identified TLR6-selective compounds (i.e., compounds that modulate TLR6-mediated activity, but not TLR7-mediated activity), TLR7-selective compounds (compounds that modulate TLR7-mediated activity, but not TLR6-mediated activity), and compounds that modulate cellular activity through both TLR6 and TLR7.
Unless otherwise indicated, all incubations were performed at 37° C. with 5% CO2 at 98% humidity.
Culture medium was prepared from complete RPMI 1640 medium (BioSource International, Inc., Camarillo, Calif.). Fetal bovine serum (Atlas Biologicals, Inc., Ft. Collins, Colo.) was added to a final concentration of 7.5% (vol/vol); L-glutamine (BioSource International, Inc.) was added to 5 mM; and sodium pyruvate (BioSource International, Inc.) was added to 1 mM.
Namalwa cells were grown by incubation in culture medium overnight. Cells were harvested by centrifugation in a tabletop centrifuge (1200 RPM for 5 minutes), and then resuspended in phosphate buffered sucrose to a concentration of 1.3×10^7 cells/mL. […]
The electroporated cells were suspended in 10 mLs of culture medium and incubated overnight. Dead cells and debris were removed after 24 hours using a MACS Dead Cell Removal kit (Miltenyi Biotec, Auburn, Calif.). Cells were resuspended in 10 mL of culture medium and incubated for an additional 24 hours.
Transfected cells were selected by adding G418 (Promega Corp., Madison, Wis.) to a final concentration of 1 mg/mL and incubating the cells for seven days.
The selected transfected cells were counted and resuspended to a concentration of 1×10^6 cell per mL in culture medium. 100 μl aliquots of cells were placed in the wells of a white-walled, white-bottomed 96-well plate (Corning, Inc., Corning, N.Y.). 1.0 μL of an IRM compound from Table 1 (prepared at 1 mM in 100% DMSO) was added to some cell aliquots so that the final concentration of IRM compound was 10 μM. As a positive control, some cell aliquots were incubated with Sendai virus instead of IRM compound. As a negative control, some cell aliquots were incubated with DMSO without IRM compound. In all cases, the cells were incubated for 18 hours.
The plates were equilibrated to room temperature before one volume of reconstituted LucLight Plus (Packard Instruments, Meriden, Conn.) was added to each aliquot of cells. Each well of the plate was read on an LJL Analyst (LJL Biosystems, Inc., Sunnyvale, Calif.) set with a 5 minute dark adapt. Results are shown in Table 6 and are expressed as fold increase of the IFN-αl—induced luciferase signal compared to a DMSO control.

Row | Compound | TLR7: fold increase of NFκB-induced luciferase signal compared to a DMSO control [1] [fold increase] | TLR7: fold increase of the IFN-α1-induced luciferase signal compared to a DMSO control [2] [fold increase]
1 | CCOCc1nc2c(N)nc3ccccc3c2n1CC(C)C [IRM1, 2-(ethoxymethyl)-1-(2-methylpropyl)-1H-imidazo[4,5-c]quinolin-4-amine] | 4.05 | 2.43
2 | CCCCc1nc2c(N)nc3ccccc3c2n1CCCCCS(C)(=O)=O [IRM6, 2-butyl-1-[5-(methylsulfonyl)pentyl]-1H-imidazo[4,5-c]quinolin-4-amine] | 8.46 | 3.09
3 | CCc1nc2c(N)nc3ccccc3c2n1CCCCNC(=O)C1CCCCC1 [IRM8, N-[4-(4-amino-2-ethyl-1H-imidazo[4,5-c]quinolin-1-yl)butyl]cyclohexanecarboxamide] | 6.04 | 2.89
4 | CCc1nc2c(N)nc3ccccc3c2n1CCCCSc1cc(Cl)cc(Cl)c1 [IRM14, 1-{4-[(3,5-dichlorophenyl)thio]butyl}-2-ethyl-1H-imidazo[4,5-c]quinolin-4-amine] | 0.67 | 1.40
5 | CCOCc1nc2c(N)nc3c(c2n1CC(C)(C)O)CCCC3 [IRM16, 4-amino-2-ethoxymethyl-α,α-dimethyl-6,7,8,9-tetrahydro-1H-imidazo[4,5-c]quinoline-1-ethanol] | 5.54 | 2.96
6 | COCCc1nc2c(N)nc3c(c2n1CC(C)(C)NS(C)(=O)=O)CCCC3 [IRM22, N-{2-[4-amino-2-(2-methoxyethyl)-6,7,8,9-tetrahydro-1H-imidazo[4,5-c]quinolin-1-yl]-1,1-dimethylethyl}methanesulfonamide] | 6.57 | 3.59

The remaining lines, values ahead:

Row | TLR7: fold increase of NFκB-induced luciferase signal compared to a DMSO control [1] [fold increase] | TLR7: fold increase of the IFN-α1-induced luciferase signal compared to a DMSO control [2] [fold increase] | Compound
7 | 6.37 | 2.86 | COCCc1nc2c(N)nc3ccccc3c2n1CCOCCN(C)C(=O)C1CCCCC1 [IRM3, N-(2-{2-[4-amino-2-(2-methoxyethyl)-1H-imidazo[4,5-c]quinolin-1-yl]ethoxy}ethyl)-N-methylcyclohexanecarboxamide]
8 | 2.45 | 2.63 | COCCc1nc2c(N)nc3ccccc3c2n1CCOCCNC(=O)Nc1ccccc1 [IRM19, N-(2-{2-[4-amino-2-(2-methoxyethyl)-1H-imidazo[4,5-c]quinolin-1-yl)ethoxy}ethyl)-N′-phenylurea]
9 | 7.08 | 3.48 | CCC(C)NC(=S)NCCn1c(CCOC)nc2c(N)nc3ccccc3c21 (stereo not drawn) [IRM21, N-{2-[4-amino-2-(2-methoxyethyl)-1H-imidazo[4,5-c]quinolin-1-yl]ethyl}-N′-sec-butylthiourea]
